Measured values: US20250066425A1, “POLYPEPTIDE AND APPLICATION THEREOF IN PREPARATION OF ANTI-FIBROSIS DRUG” (priority 2022, published 2025)
Residues, ends and D or L forms follow the SMILES beside them.

Experiment: toxic or side effect on mice after injection for several times (serum biochemistry)
Assay type: in vivo, C57 mice
Method: During sampling of the mice with myocardial infarction modeling for 4 weeks and intramyocardial injection of the polypeptide PAFRK29 for 5 times in Example 6, peripheral blood of the mice was collected into an anticoagulant tube and centrifuged at 1,000 g for 10 minutes. Serum of a supernatant was taken, and levels of blood urea nitrogen (BUN), serum alanine aminotransferase (ALT) and serum aspartate aminotransferase (AST) were determined by an automatic biochemical analyzer.

[1] = myocardial infarction mice, 4 weeks, intramyocardial injection 5 times, vs control group

Compound: CC(C)[C@H](NC(=O)[C@@H]1CCCN1C(=O)[C@H](Cc1c[nH]cn1)NC(=O)[C@H](CCCCN)NC(=O)[C@H](Cc1ccc(O)cc1)NC(=O)[C@H](CCC(N)=O)NC(=O)[C@H](CCCNC(=N)N)NC(=O)[C@H](CO)NC(=O)[C@H](Cc1c[nH]cn1)NC(=O)[C@H](Cc1ccccc1)NC(=O)[C@H](Cc1ccc(O)cc1)NC(=O)[C@H](CCC(N)=O)NC(=O)CNC(=O)[C@H](CCC(N)=O)NC(=O)[C@H](Cc1ccccc1)NC(=O)[C@H](CCCNC(=N)N)NC(=O)[C@H](CCCNC(=N)N)NC(=O)[C@H](CCCNC(=N)N)NC(=O)[C@H](CCC(N)=O)NC(=O)[C@H](CCCNC(=N)N)NC(=O)[C@H](CCCNC(=N)N)NC(=O)[C@H](CCCCN)NC(=O)[C@H](CCCCN)NC(=O)[C@@H](N)CCCNC(=N)N)C(=O)NCC(=O)N[C@@H](Cc1ccc(O)cc1)C(=O)N[C@@H](CCC(=O)O)C(=O)NCC(=O)N[C@@H](CCCCN)C(=O)O [PAFRK29] (H-RKKRRQRRRFQGQYFHSRQYKHPVGYEGK-OH; N-terminus and C-terminus assumed)
- toxic or side effect on the mice (at an effective anti-fibrosis dose): no obvious toxic or side effect
- level of blood urea nitrogen (BUN) [1]: no obvious differences
- level of serum alanine aminotransferase (ALT) [1]: no obvious differences
- level of serum aspartate aminotransferase (AST) [1]: no obvious differences
